Assay [1] concerns Candida albicans. Nature of the assay: Antifungal activity against Candida albicans ATCC 14503. In kind it is functional.
The next assay deals with Nakaseomyces glabratus. Nature of the assay: Antifungal activity against Candida glabrata. In kind it is functional.
For assay [2], the system named is Candida albicans. Kind of assay: Antifungal activity against fluconazole-resistant Candida albicans UCD FR1. It counts as functional, organism-based.

≈ marks a conversion by molar mass, not a printed value. Calls of active or inactive are those of the source. The calls are words filed in the database; no cut-off is given here.

Take `OC(Cn1cncn1)(Cn1cncn1)c1ccc(F)cc1F` [FLUCONAZOLE]: in the assay on Candida albicans [1], the lowest concentration to inhibit growth (MIC) was 1 µM (≈ 0.306 µg/mL).
Take `CCC/C(Br)=C/C=C/CC[C@H]1C[C@@H]1CCC(=O)O` [MAJUSCULOIC ACID]: the MIC in the assay with Nakaseomyces glabratus was found to be 19.3 µM (≈ 6.08 µg/mL); in the assay with Candida albicans [1], 8 µM (≈ 2.52 µg/mL). The outcome with Candida albicans [2] was inactive.

For orientation: MIC means the lowest concentration that inhibits growth of the organism. A higher MIC goes with a less susceptible organism.

Source of the values: ChEMBL document CHEMBL1158741, “Majusculoic acid, a brominated cyclopropyl fatty acid from a marine cyanobacterial mat assemblage” (2005).
